A short description of test [1]: DRUGMATRIX: beta-Lactamase enzyme inhibition (substrate: Nitrocefin). Set-up: species or system Bacillus cereus. Conditions: Not Active = under 50% inhibition at 10 µM.
Test [2] can be described thus: DRUGMATRIX: Serotonin (5-Hydroxytryptamine) 5-HT3 radioligand binding (ligand: [3H] GR-65630). Format: cell membranes, Membrane. To be noted: hek293; Not Active = under 50% inhibition at 10 µM.
The target in test [3] is T1, C-C chemokine receptor type 4 (Homo sapiens, UniProt P51679). Further: in other assays of this panel Not Active means under 50% inhibition at 10 µM.
T1 sequence (P51679 whole entry): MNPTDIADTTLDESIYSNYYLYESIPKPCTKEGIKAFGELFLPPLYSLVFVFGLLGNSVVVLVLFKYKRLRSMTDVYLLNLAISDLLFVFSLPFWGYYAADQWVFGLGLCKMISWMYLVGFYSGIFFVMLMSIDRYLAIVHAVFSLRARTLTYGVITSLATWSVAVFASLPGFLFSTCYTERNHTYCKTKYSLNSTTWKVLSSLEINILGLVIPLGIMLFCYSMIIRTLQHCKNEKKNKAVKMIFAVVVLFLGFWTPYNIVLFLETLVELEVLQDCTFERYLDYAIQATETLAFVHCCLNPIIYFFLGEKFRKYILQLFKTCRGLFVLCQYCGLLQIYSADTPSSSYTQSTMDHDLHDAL
Format: cell membranes, Chem-1, Membrane. Conditions: chem-1.

In test [4] the target is T2, Cholecystokinin receptor type A (Homo sapiens, UniProt P32238). Further: in other assays of this panel Not Active means under 50% inhibition at 10 µM.
T2 sequence (P32238 whole entry): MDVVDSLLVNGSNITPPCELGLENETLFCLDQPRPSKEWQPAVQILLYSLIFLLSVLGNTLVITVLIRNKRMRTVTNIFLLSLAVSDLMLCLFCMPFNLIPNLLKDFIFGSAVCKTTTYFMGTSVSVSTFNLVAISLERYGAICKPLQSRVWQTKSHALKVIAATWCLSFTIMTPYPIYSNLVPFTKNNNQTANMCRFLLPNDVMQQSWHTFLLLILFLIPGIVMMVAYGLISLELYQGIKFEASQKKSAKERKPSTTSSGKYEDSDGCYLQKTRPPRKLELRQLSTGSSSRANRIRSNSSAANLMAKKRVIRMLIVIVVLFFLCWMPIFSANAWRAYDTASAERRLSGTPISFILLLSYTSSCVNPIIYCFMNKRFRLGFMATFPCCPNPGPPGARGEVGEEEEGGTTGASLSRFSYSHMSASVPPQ
Format: cell membranes, Membrane. To be noted: 1321-n1.

Test [5] addresses T3, Neuropeptide Y receptor type 1 (Homo sapiens, UniProt P25929).
T3 sequence (P25929 whole entry): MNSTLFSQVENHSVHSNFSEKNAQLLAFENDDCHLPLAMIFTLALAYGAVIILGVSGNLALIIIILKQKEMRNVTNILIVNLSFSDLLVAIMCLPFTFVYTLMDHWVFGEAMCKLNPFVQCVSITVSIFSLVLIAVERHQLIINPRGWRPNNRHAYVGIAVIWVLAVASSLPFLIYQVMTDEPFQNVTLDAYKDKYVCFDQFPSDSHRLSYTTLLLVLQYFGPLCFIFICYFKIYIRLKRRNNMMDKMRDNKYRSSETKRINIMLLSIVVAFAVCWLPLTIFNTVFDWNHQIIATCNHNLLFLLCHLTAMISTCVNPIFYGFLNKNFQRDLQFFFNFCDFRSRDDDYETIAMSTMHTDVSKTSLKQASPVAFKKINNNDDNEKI
In kind it is cell membranes, Membrane. To be noted: sk-n-mc.

In test [6] the target is Platelet-activating factor receptor (Homo sapiens, UniProt P25105). In kind it is tissue-based. Further: in other assays of this panel Not Active means under 50% inhibition at 10 µM.
Platelet-activating factor receptor, sequence (P25105 whole entry): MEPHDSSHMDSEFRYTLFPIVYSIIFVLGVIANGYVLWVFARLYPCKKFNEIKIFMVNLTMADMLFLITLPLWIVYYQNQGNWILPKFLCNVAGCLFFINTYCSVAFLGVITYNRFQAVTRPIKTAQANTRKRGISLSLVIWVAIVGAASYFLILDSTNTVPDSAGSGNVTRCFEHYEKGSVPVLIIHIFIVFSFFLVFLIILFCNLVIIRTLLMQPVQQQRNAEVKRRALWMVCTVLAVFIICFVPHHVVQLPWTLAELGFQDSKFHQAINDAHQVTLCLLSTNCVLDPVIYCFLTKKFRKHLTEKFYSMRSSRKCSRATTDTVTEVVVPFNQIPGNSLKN
The target of test [7] is Protein phosphatase 3 catalytic subunit alpha (Homo sapiens, UniProt Q08209). Also noted: species or system Escherichia coli.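 Further: inhibition of calcineurin (PP2B) enzyme activity, measured with DiFMUP as the substrate; in other assays of this panel Not Active means under 50% inhibition at 10 µM.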
Test [8] addresses T4, Adenosine receptor A1 (Homo sapiens, UniProt P30542).
T4 sequence (P30542 whole entry): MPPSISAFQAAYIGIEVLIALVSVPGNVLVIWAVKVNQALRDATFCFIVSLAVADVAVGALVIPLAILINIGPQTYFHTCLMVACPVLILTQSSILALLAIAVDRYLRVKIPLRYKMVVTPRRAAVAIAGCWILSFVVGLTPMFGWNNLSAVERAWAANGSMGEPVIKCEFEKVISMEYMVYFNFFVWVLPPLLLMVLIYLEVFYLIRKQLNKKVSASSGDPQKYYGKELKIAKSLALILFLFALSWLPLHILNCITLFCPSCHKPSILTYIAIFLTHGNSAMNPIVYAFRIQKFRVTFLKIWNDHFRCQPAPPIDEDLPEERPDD
In kind it is cell membranes, CHO, Membrane. Conditions: cho.

As for `CC[C@H]1OC(=O)[C@H](C)[C@@H](O[C@H]2C[C@@](C)(OC)[C@@H](O)[C@H](C)O2)[C@H](C)[C@@H](O[C@@H]2O[C@H](C)C[C@H](N(C)C)[C@H]2O)[C@](C)(O)C[C@@H](C)C(=O)[C@H](C)[C@@H](O)[C@]1(C)O` [ERYTHROMYCIN], the half-maximal inhibitory concentration (IC50) entry in test [1], in test [2], in test [3], in test [4], in test [5] and in test [6] was “Not Active” throughout. The IC50 entry in test [7] and in test [8] was “Not Active” throughout. Moreover, the Ki entry in test [1] and in test [2] was “Not Active” throughout.

Regarding `CC12CCC(CC1)C(C)(C)O2` [EUCALYPTOL], the IC50 result in test [1], in test [2], in test [3], in test [4], in test [5] and in test [6] was “Not Active” each time. Also, the IC50 result in test [7] and in test [8] was “Not Active” each time. The Ki result in test [1] and in test [2] was “Not Active” each time.

Turning to `NC(N)=Nc1nc(CSCCC(N)=NS(N)(=O)=O)cs1` [FAMOTIDINE], the IC50 entry in test [1], in test [2], in test [3], in test [4], in test [5] and in test [6] was “Not Active” in each case. Also, the IC50 result in test [7] and in test [8] was “Not Active” in each case. For the same molecule, the Ki result in test [1] and in test [2] was “Not Active” each time.

Take `COC(=O)Nc1nc2ccc(Sc3ccccc3)cc2[nH]1` [FENBENDAZOLE]: the IC50 in test [1] (read-out: IC50) was 5.99 µM; in test [2] it was “Not Active”; in test [3], “Not Active”; in test [4], “Not Active”; in test [5], “Not Active”; in test [6] it was “Not Active”. The half-inhibitory concentration (IC50) entry in test [7] and in test [8] was “Not Active” throughout. Further, the Ki entry in test [2] is on record as “Not Active”.

For the molecule `COc1cc(/C=C/C(=O)O)ccc1O` [FERULATE], the IC50 result in test [1], in test [2], in test [3], in test [4], in test [5] and in test [6] was “Not Active” throughout. Besides, the half-maximal inhibitory concentration (IC50) entry in test [7] and in test [8] was “Not Active” in each case. The Ki result in test [1] and in test [2] was “Not Active” throughout.

For the molecule `Nc1nc(F)nc2c1ncn2[C@@H]1O[C@H](CO)[C@@H](O)[C@@H]1O` [FLUDARABINE], the IC50 result in test [1], in test [2], in test [3], in test [4], in test [5] and in test [6] was “Not Active” in each case. Further, the IC50 result in test [7] and in test [8] was “Not Active” each time. Besides, the Ki entry in test [1] and in test [2] was “Not Active” in each case.

In the case of `C[C@H](C(=O)O)c1ccc2oc(-c3ccc(F)cc3)nc2c1` [FLUNOXAPROFEN], the IC50 result in test [1], in test [2], in test [3], in test [4], in test [5] and in test [6] was “Not Active” each time. Moreover, the IC50 result in test [7] and in test [8] was “Not Active” in each case. The Ki entry in test [1] and in test [2] was “Not Active” throughout.

Turning to `NS(=O)(=O)c1cc(C(=O)O)c(NCc2ccco2)cc1Cl` [FUROSEMIDE], the IC50 result in test [1], in test [2], in test [3], in test [4], in test [5] and in test [6] was “Not Active” throughout. Further, the 50% inhibitory concentration (IC50) result in test [7] and in test [8] was “Not Active” in each case. For the same molecule, the Ki result in test [1] and in test [2] was “Not Active” each time.

In the case of `COc1ccc(Cl)cc1C(=O)NCCc1ccc(S(=O)(=O)NC(=O)NC2CCCCC2)cc1` [GLYBURIDE], the half-inhibitory concentration (IC50) result in test [1], in test [2], in test [3], in test [4], in test [5] and in test [6] was “Not Active” in each case. The 50% inhibitory concentration (IC50) entry in test [7] and in test [8] was “Not Active” throughout. Further, the Ki result in test [1] and in test [2] was “Not Active” each time.

In the case of `O=C(O)CO` [GLYCOLIC ACID], the IC50 result in test [1], in test [2], in test [3], in test [4], in test [5] and in test [6] was “Not Active” throughout. The IC50 entry in test [7] and in test [8] was “Not Active” in each case. In addition, the Ki result in test [1] and in test [2] was “Not Active” each time.

As for `O=C(O)CNCP(=O)(O)O` [GLYPHOSATE], the concentration for half-maximal inhibition (IC50) result in test [1], in test [2], in test [3], in test [4], in test [5] and in test [6] was “Not Active” in each case. The IC50 entry in test [7] and in test [8] was “Not Active” in each case. For the same molecule, the Ki entry in test [1] and in test [2] was “Not Active” throughout.

On to `Clc1cc(Cl)c(OCC#CI)cc1Cl` [HALOPROGIN], for which the IC50 entry in test [1], in test [2], in test [3], in test [4], in test [5] and in test [6] was “Not Active” each time. In addition, the IC50 result in test [7] and in test [8] was “Not Active” each time. The Ki entry in test [1] and in test [2] was “Not Active” each time.

Take `COC(=O)C[C@](O)(CCC(C)(C)O)C(=O)O[C@@H]1C(OC)=C[C@]23CCCN2CCc2cc4c(cc2[C@H]13)OCO4` [HARRINGTONINE]: the concentration for half-maximal inhibition (IC50) result in test [1], in test [2], in test [3], in test [4], in test [5] and in test [6] was “Not Active” each time. Also, the IC50 entry in test [7] and in test [8] was “Not Active” throughout. Moreover, the Ki entry in test [1] and in test [2] was “Not Active” in each case.

Take `CCN(CCO)CCCC(C)Nc1ccnc2cc(Cl)ccc12` (centres undefined) [HYDROXYCHLOROQUINE]: the IC50 result in test [1], in test [2], in test [3], in test [4], in test [5] and in test [6] was “Not Active” in each case. The IC50 entry in test [7] and in test [8] was “Not Active” in each case. Further, the Ki result in test [1] and in test [2] was “Not Active” throughout.

As to `CC(=O)[C@]1(O)Cc2c(O)c3c(c(O)c2[C@@H](O[C@H]2C[C@H](N)[C@H](O)[C@H](C)O2)C1)C(=O)c1ccccc1C3=O` [IDARUBICIN], the IC50 result in test [1], in test [2], in test [3], in test [4], in test [5] and in test [6] was “Not Active” throughout. Further, the IC50 result in test [7] and in test [8] was “Not Active” in each case. Further, the Ki result in test [1] and in test [2] was “Not Active” in each case.

A word on the IC50: it is the point on the concentration scale where inhibition reaches its midpoint.

These data come from ChEMBL document CHEMBL1909046, “DrugMatrix in vitro pharmacology data”.
